Reference: patent US20100040623A1, “NEURITOGENIC AND NEURONAL SURVIVAL PROMOTING PEPTIDES DERIVED FROM THE FAMILY OF S-100 PROTEINS” (priority 2005, published 2010)

Tests used:
[1] = system: primary hippocampal neurons; assay: Neurite outgrowth from primary hippocampal neurons; type: cell-based, Wistar rat; conditions: for stimulation of neurite outgrowth in vitro (conclusion): summary statement; for neurite outgrowth from hippocampal primary neurons (average neurite length): treated with various concentrations of peptide for 24 hours
Description: (§1) Dissociated hippocampal and cerebellar (CGN) neurons were isolated from Wistar rat embryos at embryonic day 19 or newborn rats as previously described by Rønn et al. (1999). Briefly, hippocampus was isolated from the brain in ice cold modified Krebs Ringer solution, cleared of blood vessels, roughly homogenised by chopping and then trypsinised. The dissociated cells were washed in the presence of DNAse 1 and soybean trypsin inhibitor. Postnatal hippocampal neurons were plated at a density of 10,000 cells/cm^2 on uncoated 8-well permanox Lab-Tek chamber slides in Neurobasal medium supplemented with 0.4% (w/v) bovine serum albumin (BSA; Sigma-Aldrich), 2% (v/v) B27 Neurobasal supplement, 1% (v/v) glutamax, 100 U/ml penicillin, 100 μg/ml streptomycin and 2% 1 M HEPES (all from Gibco, BRL). After 24 hours, the neurons were fixed with 4% (v/v) formaldehyde for 20 minutes and thereafter immunostained using primary rabbit antibodies against GAP-43 and Alexa Fluor secondary goat anti-rabbit Ig antibodies. Images of at least 200 neurons for each group in each individual experiment were obtained systematically by computer assisted fluorescence microscopy as previously described (Rønn et al., 2000). Briefly, a Nikon Diaphot inverted microscope with a Nikon Plan 20× objective (Nikon, Tokyo, Japan) coupled to a video camera (Grundig Electronics, Germany) was used for recordings. A software package Prima developed at the Protein Laboratory (Copenhagen, Denmark) was used to make a stereologically based determination of neurite length (Rønn et al., 2000).
(§2) Neuronal cell cultures were treated with various concentrations of a peptide for 24 hours, and the average neurite length was evaluated as described above. […] Thus peptide segments number 3 and number 6 from various members of the S100 protein family may represent potent pharmacological tools to induce neuronal differentiation and axon regeneration.

cerebellar (CGN) neurons = assay: Neurite outgrowth from primary cerebellar neurons; type: cell-based, Wistar rat; conditions: treated with various concentrations of peptide for 24 hours
Description: as §1, §2

hippocampal neurons = conditions: Novitskaya et al., 2000; cited from earlier work
[2] = system: focal brain injury on the right fronto-parietal cortex; assay: Traumatic brain injury (cryolesion): TUNEL, GFAP, PCNA; type: in vivo, Rats and mice; conditions: 10 mg/kg s.c. at day -1, 1 and 2; post-lesion day 4
Description: A focal brain injury on the right fronto-parietal cortex was made by applying a piece of dry-ice (−78° C.) directly onto the skull for 30 seconds in mice and 60 seconds in rats, as previously described in details (Penkowa et al., 2003).
Histochemistry and immunohistochemistry were performed on sections cut from organs taken from fixated animals. Rats and mice were deeply anesthetized with Brietal and flushed by cardiac perfusion with saline containing heparine (0.9% NaCl, 3 ml/L 5000IU heparine) for 2 minutes followed by fixation with Zamboni's fixative (pH 7.4) for 4-8 minutes depending on the size of the animal. For immunohistochemical investigation, brain were dissected and postfixed in Zamboni's for 2-3 hours, dehydraded in graded alcohol followed by xylol and subsequently embedded in paraffin before being cut in 3 μm frontal sections throughout the entire area of the cryo lesion. For heat-induced epitope retrieval, the sections were boiled in citrate buffer (pH 6 or 9) in a microwave oven for 10 minutes followed by incubation in 10% goat serum (In Vitro, Fredensborg, DK) or donkey serum (code BP 005.1; The Binding Site, Birmingham, UK) in tris buffered saline (TBS)/Nonidet P-40 (0.01%) for 30 minutes at room temperature. Sections with mouse tissue used for incubation with monoclonal mouse-derived antibodies were also incubated with Blocking Solutions A+B from the HistoMouse-SP kit to quench endogenous mouse IgG (Zymed, Calif., USA).
Following treatment as described above, sections were incubated overnight at 5° C. with one of the following primary antibodies: polyclonal rabbit anti-cow glial fibrillary acidic protein (GFAP) 1:250 (a marker for astrocytes; DakoCytomation); monoclonal mouse anti-rat proliferating cellular nuclear antigen (PCNA) 1:10 (marking proliferating cell nuclear antigen/cell proliferation; DakoCytomation). The primary antibody was detected with biotynilated secondary antibodies, incubated with streptavidinbiotin-peroxidase complex for 30 min.
Terminal deoxynucleotidyl transferase (TdT)-mediated deoxyuridine triphosphate (dUTP)-biotin nick end labelling (TUNEL) was performed using the Fragment End Labeling (FragEL™) Detection Kit (Calbiochem, USA, code QIA33). The FragEL kit contains all the materials used below and each step was performed according to the manufacturer's recommendations. The tissue was processed and rehydrated as mentioned above, and sections were incubated with 20 µg/ml proteinase K for 20 min to strip off nuclear proteins. After immersion in equilibration buffer for 20 min, sections were incubated with TdT and biotin-labeled deoxynucleotids (dNTP-biotin) in a humified chamber at 37° C. for 1.5 hr. This was followed by wash buffer and the stop solution for 5 min at room temperature to stop the reaction. After washing in TBS and incubation in blocking buffer for 10 min, the sections were incubated with Peroxidase-Streptavidin for 30 min and afterwards, DAB was used as chromogen. The sections were counterstained with methyl-green. Negative control sections were treated similarly but incubated in the absence of TdT enzyme or dNTP-biotin or Peroxidase-Streptavidin. We also compared our sections with positive control slides provided in the FragEL Detection Kit. Furthermore, TUNEL was compared with other stainings for apoptosis (activated caspase-3, cytochrome-c and TNF[…]-R1). In addition, the morphologic criteria for apoptosis, i.e. cell shrinkage, formation of apoptotic bodies, membrane blebbing, no loss of cellular integrity, compaction of chromatin into uniformly dense masses, were evaluated.
In addition to morphological evaluation, quantification (cellular counts) of some of the variables, i.e. GFAP-positive cells, the area of GFAP-immunoreactivity, % of TUNEL-positive cells, % of proliferating cells, were analyzed. The analysis was carried out from the penumbra area of 3 μm brain sections for statistical analysis of the results. […]

Akt = assay: Phosphorylation of Akt in primary hippocampal neurons (PAGE method); type: cell-based; conditions: neurons cultured 6 hours, stimulated 15 minutes
Description: (§3) Primary hippocampal neurons cultured for 6 hours were stimulated with H3 or H6 for 15 minutes. Thereafter the phosphorylation level of the three intracellular messengers involved in neurite outgrowth and survival, Akt, CREB, and ERK, was determined using the PAGE method.

ERK = assay: Phosphorylation of ERK in primary hippocampal neurons (PAGE method); type: cell-based; conditions: neurons cultured 6 hours, stimulated 15 minutes
Description: as §3

[3] = system: kainic acid (KA)-induced toxicity; assay: Kainic acid-induced toxicity (seizures, mortality); type: in vivo, Male C57BL/6J mice; conditions: peptide 10 mg/kg daily from day -2; for amount of seizures: 20 mg/kg KA; for profile of seizures (severity): 30 mg/kg KA
Description: Male C57BL/6J mice were injected with 10 mg/kg H3 or H6 daily starting from day-2 prior to kainic acid treatment. At day 0 the animals were injected 30 mg/kg KA in order to induce severe seizures, or 20 mg/kg KA in order to induce mild seizures and prevent excessive mortality. Latency and seizure severity were scored for 2 h postinjection by using a numerical scale of 0 to 6: 0—immobility; 1—facial automatism; 2—head nodding; 3—forelimb clonus; 4—rearing; 5—generalized convulsions; 6—death. Control animals received s.c injection of vehicle.

[4] = system: cultured hippocampal neurons; assay: Intracellular Ca2+ concentration, fura-2 loaded neurons; type: cell-based; conditions: fura-2 ratiometric dye
CREB = assay: Phosphorylation of CREB in primary hippocampal neurons (PAGE method); type: cell-based; conditions: neurons cultured 6 hours, stimulated 15 minutes
Description: as §3

sciatic nerve crush = assay: Functional recovery after sciatic nerve crush (Sciatic Function Index); type: in vivo, Wistar rats; conditions: 10 mg/kg daily for 18 days
Description: Nerve crush of sciatic nerve was performed as follows. Before surgery, animals were anesthetized with subcutaneous injection of a Fenthanil/Droperidol/Medazolam (0.8 ml per 100 g). The right hind limb was shaved and swabbed with antiseptic solution. A longitudinal cutaneous incision was made in the back of the thigh. Dissection was carried out along a plane separating the hamstring and gluteal muscles to expose the sciatic nerve. Careful dissection was performed to isolate the sciatic nerve from the surrounding connective tissue over a length of 2 to 2.5 cm. The sciatic nerve was unilaterally crushed twice in the same place (0.5 cm upper trifurcation) for a 30 sec using a locking surgical needle holder. The place of the crush was labelled with 5-0 suture material attached to the epineurium. […] The bottom of the corridor was lined with paper, upon which the hind pawprints of the rat were recorded. […] Several prints of each foot were inspected, and the best corresponding pair of prints from experimental (E) and normal (N) legs were measured to the nearest millimeter, using a caliper. Three footprint parameters were measured: distance from the heel to the third toe, print length (PL), the distance between the first and fifth toe, toe spread (TS), and distance between the second and fourth toe, the intermediary toe spread (IT). […]

Q: Which “stimulation of neurite outgrowth in vitro (conclusion)” value [1] does the source give for “HYHTHKE [A12H6, tetrameric peptide (hekatone) representing region 6 of S100A12]” here?
A: potent stimulators of neurite outgrowth

Q: Which results are given for “KQLLTKELANTIKNIK [A12H3, tetrameric peptide (hekatone) representing region 3 of S100A12]”?
A: neurite outgrowth from hippocampal primary neurons (average neurite length) [1]: strongly induced neurite outgrowth; neurite outgrowth from cerebellar primary neurons (average neurite length) (cerebellar (CGN) neurons): strongly induced neurite outgrowth

Q: With “S100A4: S100 family Ca2+-binding protein S100A4 (also termed Mts1)” as the substance, how does the “neurite outgrowth in hippocampal neurons in vitro” value (hippocampal neurons) read?
A: potent promoter of neurite outgrowth

Q: For “NEFFEGFPDKQPRKK [A4H6, tetrameric peptide (hekatone) representing region 6 of S100A4]”, which “area of GFAP-immunoreactivity (astrogliosis)” value [2] is on record?
A: increase

Q: What about the “cell death (apoptosis, DNA fragmentation/TUNEL) in the cortex induced by cryolesion” value [2] of the same substance?
A: protected cells in the cortex from cell death

Q: And the “number of GFAP-positive cells (astrogliosis)” value [2]?
A: increase

Q: What about the “phosphorylation level of Akt” value (Akt) of the same substance?
A: significantly increased phosphorylation

Q: What about the “stimulation of neurite outgrowth in vitro (conclusion)” value [1] of the same substance?
A: potent stimulators of neurite outgrowth

Q: What about the “neurite outgrowth from hippocampal primary neurons (average neurite length)” value [1] of the same substance?
A: strongly induced neurite outgrowth

Q: And the “phosphorylation level of ERK” value (ERK)?
A: significantly increased phosphorylation

Q: What about the amount of seizures [3] of the same substance?
A: decreased the amount of seizures

Q: And the “profile of seizures (severity)” value [3]?
A: towards less severe seizures types

Q: And the “level of intracellular Ca2+ ([Ca2+]i)” value [4]?
A: significantly increased

Q: What about the “phosphorylation level of CREB” value (CREB) of the same substance?
A: significantly increased phosphorylation

Q: And the “neurite outgrowth from cerebellar primary neurons (average neurite length)” value (cerebellar (CGN) neurons)?
A: strongly induced neurite outgrowth

Q: What does the source list for “KELLTRELPSFLGKRT [A4H3, tetrameric peptide (hekatone) representing region 3 of S100A4]”?
A: area of GFAP-immunoreactivity (astrogliosis) [2]: increase; cell death (apoptosis, DNA fragmentation/TUNEL) in the cortex induced by cryolesion [2]: protected cells in the cortex from cell death; number of GFAP-positive cells (astrogliosis) [2]: increase; phosphorylation level of Akt (Akt): significantly increased phosphorylation; stimulation of neurite outgrowth in vitro (conclusion) [1]: potent stimulators of neurite outgrowth; neurite outgrowth from hippocampal primary neurons (average neurite length) [1]: strongly induced neurite outgrowth; phosphorylation level of ERK (ERK): significantly increased phosphorylation; amount of seizures [3]: decreased the amount of seizures; profile of seizures (severity) [3]: towards less severe seizures types; recovery of the motor function of the injured limb (SFI) (sciatic nerve crush): strongly promoted the recovery; level of intracellular Ca2+ ([Ca2+]i) [4]: but not H3 significantly increased; phosphorylation level of CREB (CREB): significantly increased phosphorylation; neurite outgrowth from cerebellar primary neurons (average neurite length) (cerebellar (CGN) neurons): strongly induced neurite outgrowth

Q: Which “proliferation of neural progenitor cells” value [2] does the source give for “DEAAFQKLMSNLD [A4H4, tetrameric peptide (hekatone) representing region 4 of S100A4]” here?
A: strongly induced proliferation
